From ChEMBL document CHEMBL5241076, “Natural products and analogs as preventive agents for metabolic syndrome via peroxisome proliferator-activated receptors: An overview” (Eur J Med Chem, 2021) come the findings set out here.

Data set [1] deals with T1, Peroxisome proliferator-activated receptor gamma (Homo sapiens) (UniProt P37231).
T1 sequence (whole entry): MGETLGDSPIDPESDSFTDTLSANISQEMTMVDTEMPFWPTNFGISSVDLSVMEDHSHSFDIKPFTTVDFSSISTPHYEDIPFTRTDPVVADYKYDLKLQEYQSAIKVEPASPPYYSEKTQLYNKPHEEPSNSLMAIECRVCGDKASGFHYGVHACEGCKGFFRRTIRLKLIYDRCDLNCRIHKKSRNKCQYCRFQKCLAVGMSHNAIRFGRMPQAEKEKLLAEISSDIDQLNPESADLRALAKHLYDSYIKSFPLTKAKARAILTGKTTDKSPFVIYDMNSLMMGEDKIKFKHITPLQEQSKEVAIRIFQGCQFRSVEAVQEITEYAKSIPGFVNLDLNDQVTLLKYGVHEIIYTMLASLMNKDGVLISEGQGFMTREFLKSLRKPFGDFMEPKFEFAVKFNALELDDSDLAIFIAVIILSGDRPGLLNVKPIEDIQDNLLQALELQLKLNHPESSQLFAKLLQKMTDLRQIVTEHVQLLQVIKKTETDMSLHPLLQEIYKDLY
Nature of the data set: Agonist activity at PPARgamma (unknown origin) at 0.1 to 25 uM relative to control. The following applies: dose 0.1-25 µM.

Data set [2] deals with T2, Peroxisome proliferator-activated receptor delta (Homo sapiens, UniProt Q03181).
T2 sequence (Q03181 whole entry): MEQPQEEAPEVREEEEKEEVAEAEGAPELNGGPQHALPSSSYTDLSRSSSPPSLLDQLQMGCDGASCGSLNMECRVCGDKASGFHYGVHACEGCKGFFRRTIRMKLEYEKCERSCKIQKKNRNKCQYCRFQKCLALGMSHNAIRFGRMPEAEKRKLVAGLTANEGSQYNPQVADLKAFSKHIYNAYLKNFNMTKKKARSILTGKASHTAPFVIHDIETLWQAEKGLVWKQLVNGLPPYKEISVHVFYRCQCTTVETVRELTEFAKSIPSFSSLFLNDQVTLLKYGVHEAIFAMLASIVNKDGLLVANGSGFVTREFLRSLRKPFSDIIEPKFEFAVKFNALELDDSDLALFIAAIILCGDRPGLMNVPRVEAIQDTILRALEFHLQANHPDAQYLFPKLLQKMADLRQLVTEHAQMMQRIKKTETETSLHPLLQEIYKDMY
Nature of the data set: Agonist activity at PPARdelta (unknown origin).

For data set [3], the target named is T3, Peroxisome proliferator-activated receptor gamma (Homo sapiens, UniProt P37231).
T3 sequence (P37231 whole entry): T1 sequence (whole entry)
Nature of the data set: Binding affinity to PPARgamma (unknown origin).

Data set [4] concerns the target T4, Peroxisome proliferator-activated receptor alpha (Homo sapiens) (UniProt Q07869).
T4 sequence (whole entry): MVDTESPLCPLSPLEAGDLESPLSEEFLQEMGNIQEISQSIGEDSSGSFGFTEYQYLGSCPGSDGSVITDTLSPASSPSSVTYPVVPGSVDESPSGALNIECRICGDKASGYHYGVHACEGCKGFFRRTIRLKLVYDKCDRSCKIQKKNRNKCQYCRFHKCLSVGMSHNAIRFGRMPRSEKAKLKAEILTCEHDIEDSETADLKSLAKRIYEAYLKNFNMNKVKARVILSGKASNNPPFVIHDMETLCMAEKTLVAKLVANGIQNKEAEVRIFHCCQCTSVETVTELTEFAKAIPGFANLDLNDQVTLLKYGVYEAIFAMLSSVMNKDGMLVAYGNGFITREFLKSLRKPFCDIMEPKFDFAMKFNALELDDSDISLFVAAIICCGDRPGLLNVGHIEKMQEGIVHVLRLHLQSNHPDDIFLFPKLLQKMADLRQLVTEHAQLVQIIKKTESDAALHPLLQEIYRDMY
Nature of the data set: Agonist activity at PPARalpha (unknown origin) at 240 uM relative to control.

Data set [5] has as its target T1, Peroxisome proliferator-activated receptor gamma (Homo sapiens). Nature of the data set: Agonist activity at PPARgamma (unknown origin) at 80 uM relative to control. The following applies: filed as agonist.
A short description of data set [6]: Half life in Syrian hamster at 100 mg/kg, po. The conditions noted are these: in vivo. The format is ADME, organism-based, Mesocricetus auratus.
Data set [7] in a line: Cmax in Syrian hamster at 100 mg/kg, po. In kind it is ADME, organism-based, Mesocricetus auratus. Set-up: dose 100 mg/kg, route po. The conditions noted are these: in vivo.
In data set [8] the target is T5, Peroxisome proliferator-activated receptor alpha (Homo sapiens, UniProt Q07869).
T5 sequence (Q07869 whole entry): T4 sequence (whole entry)
Nature of the data set: Agonist activity at PPARalpha (unknown origin).

In data set [9] the target is T5, Peroxisome proliferator-activated receptor alpha. Nature of the data set: Binding affinity to PPARalpha (unknown origin).
The target in data set [10] is T4, Peroxisome proliferator-activated receptor alpha (Homo sapiens). Nature of the data set: Agonist activity at PPARalpha (unknown origin) relative to control. The conditions noted are these: filed as agonist.
A short description of data set [11]: Half life in mouse at 100 mg/kg, po. In kind it is ADME, organism-based. The conditions noted are these: in vivo.
A short description of data set [12]: Cmax in mouse at 100 mg/kg, PO. The format is ADME, organism-based. Also noted: dose 100 mg/kg, route po. The following applies: in vivo.
The target in data set [13] is T1, Peroxisome proliferator-activated receptor gamma (Homo sapiens). Nature of the data set: Partial agonist activity at PPARgamma (unknown origin) relative to control.
Data set [14] addresses T6, Peroxisome proliferator-activated receptor delta (Homo sapiens) (UniProt Q03181).
T6 sequence (whole entry): T2 sequence (Q03181 whole entry)
Nature of the data set: Agonist activity at PPARdelta (unknown origin) at 20 uM relative to control. The following applies: filed as agonist.

Data set [15] concerns the target T4, Peroxisome proliferator-activated receptor alpha (Homo sapiens). Nature of the data set: Agonist activity at PPARalpha (unknown origin) at 20 uM relative to control. The following applies: filed as agonist.

Each structure is given as a SMILES string.

Compound `CCCCCc1cc2c(c(O)c1C(=O)O)[C@@H]1C=C(C)CC[C@H]1C(C)(C)O2` returned an Activity in [1] of 17%. For the compound `C=CCc1ccc(O)c(-c2cc(CC=C)ccc2O)c1` [MAGNOLOL], in data set [2], the EC50 (commonly the midpoint of the concentration-response curve) is 11.4 µM.

Regarding `CC(C)=CCC[C@@](C)(O)[C@H]1CC[C@]2(C)[C@@H]1[C@H](O)C[C@@H]1[C@@]3(C)CC[C@H](O)C(C)(C)[C@@H]3[C@@H](O)C[C@]12C`, in data set [3], the affinity corresponds to a Ki of 54.2 µM. As to `O=C1C[C@@H](c2ccc(O)cc2)Oc2cc(O)cc(O)c21`, the results for the Activity in [4] and in data set [5] were 24% and 57%, respectively. Turning to `COc1cc(/C=C/c2cc(/C=C/c3ccc(O)c(OC)c3)n(-c3ccc(Cl)c(Cl)c3)n2)ccc1O`, the half-life – broadly, the time needed for the level to fall by half in the phase considered – in [6] was 2.8 h. The Cmax (as a rule, the highest concentration seen after dosing) in data set [7] worked out at 1390 ng/mL.

Regarding `Cc1coc2c1C(=O)C(=O)c1c-2ccc2c1CCCC2(C)C` [TANSHINONE IIA], the Ki – broadly, the dissociation constant of the complex between target and ligand, obtained from inhibition or displacement – in [3] was 2.56 µM. Consider `C=C1CC/C=C(\C)CC[C@@H]2[C@@H]1CC2(C)C` [BETA-CARYOPHYLLENE], for which the midpoint of the response in data set [8], the EC50, lay at 9.58 µM.

`COc1cc(/C=C/C(=O)CC(=O)/C=C/c2ccc(O)c(OC)c2)ccc1O` [CURCUMIN] displayed a Cmax in data set [7] of 2.35 ng/mL.

In the case of `COc1ccc2cc3[n+](cc2c1OC)CCc1cc2c(cc1-3)OCO2` [BERBERINE], the concentration giving a half-maximal response (EC50) is 0.58 µM in data set [8] and 14 µM in data set [2]. Affinity in [9] was put at a Ki of 0.73 µM. In addition, the Activity in data set [10] came out at 102%. The compound `COc1cc(CCc2ccccc2)c(C(=O)O)c(O)c1CC=C(C)C` [AMORFRUTIN A] had a half-life in [11] of 2 h. Further, the highest level in data set [12] (Cmax) was 42400 ng/mL. In turn, `O=c1c(O)c(-c2ccc(O)c(O)c2)oc2cc(O)cc(O)c12` yielded an Activity in data set [13] of 20%. Regarding `O=c1c(O)c(-c2ccc(O)cc2)oc2cc(O)cc(O)c12` [KAEMPFEROL], the EC50 is 15.5 µM in data set [8] and 341 µM in [2]. For the same compound, the figures for the Activity in data set [14], in data set [13] (filed as partial agonist) and in data set [15] were 155%, 45% and 433%, respectively.
